Here are results for two molecules from patent US8420653B2, “Pyrimidine compounds and their uses” (Orchid Chemicals & Pharmaceuticals Limited, priority 2008, dated 2013).

One assay relates to NCI-H460. In words: Anti-cancer screen (MTT), NCI-H460. Type of assay: cell-based. Particulars: Homo sapiens. As for the experimental part:
(§1) Experimental drugs are screened for anti-cancer activity in three cell lines for their GI50, TGI and LC50 values (using 5 concentrations for each compound). The cell lines are maintained in DMEM containing 10% fetal bovine serum. 96 well microtiter plates are inoculated with cells in […] for 24 hours at 37° C., 5% CO2, 95% air and 100% relative humidity. 5000 HCT116 cells/well, 5000 NCIH460 cells/well, 10000 U251 cells/well and 5000 MDAMB231 cells/well are plated. A separate plate with these cell lines is also inoculated to determine cell viability before the addition of the compounds (T0).
(§2) Following 24-hour incubation, experimental drugs are added to the 96 well plates. Each plate contains one of the above cell lines and the following in triplicate: 5 different concentrations (0.01, 0.1, 1, 10 and 100 μM) of 4 different compounds, appropriate dilutions of a cytotoxic standard and control (untreated) wells. Compounds are dissolved in dimethylsulfoxide (DMSO) to make 20 mM stock solutions, on the day of drug addition and frozen at −20° C. Serial dilutions of these 20 mM stock solutions are made in complete growth medium such that 100 μL of these drug solutions in medium, of final concentrations equaling 0.01, 0.1, 1, 10 and 100 μM can be added to the cells in triplicate. Standard drugs whose anti-cancer activity has been well documented and which are regularly used are doxorubicin and SAHA.
(§3) Cells are incubated with compounds for 48 hours followed by the addition of 10 μL 3-(4,5-Dimethyl-2-thiazolyl)-2,5-diphenyl-2H-tetrazolium (MTT) solution per well and a subsequent incubation at 37° C., 5% CO2, 95% air and 100% relative humidity, protected from light. After 4 hours, well contents are aspirated carefully followed by addition of 150 μL DMSO per well. Plates are agitated to ensure solution of the formazan crystals in DMSO and absorbance read at 570 nm.
(§4) Percent growth is calculated for each compound's concentration relative to the control and zero measurement wells (T0; viability right before compound addition). If a test well's O.D. value is greater than the T0 measurement for that cell line % Growth=(test−zero)/(control−zero)×100
(§5) If a test well's O.D. value is lower than the T0 measurement for that cell line, then: % Growth=(test−zero)/zero×100
(§6) Plotting % growth versus experimental drug concentration, GI50 is the concentration required to decrease % growth by 50%; TGI is the concentration required to decrease % growth by 100% and LC50 is the concentration required to decrease % growth by 150%.

Assay [1] has as its target T1, purified recombinant COX-2 (Homo sapiens, UniProt P35354).
T1 sequence (P35354 18-604): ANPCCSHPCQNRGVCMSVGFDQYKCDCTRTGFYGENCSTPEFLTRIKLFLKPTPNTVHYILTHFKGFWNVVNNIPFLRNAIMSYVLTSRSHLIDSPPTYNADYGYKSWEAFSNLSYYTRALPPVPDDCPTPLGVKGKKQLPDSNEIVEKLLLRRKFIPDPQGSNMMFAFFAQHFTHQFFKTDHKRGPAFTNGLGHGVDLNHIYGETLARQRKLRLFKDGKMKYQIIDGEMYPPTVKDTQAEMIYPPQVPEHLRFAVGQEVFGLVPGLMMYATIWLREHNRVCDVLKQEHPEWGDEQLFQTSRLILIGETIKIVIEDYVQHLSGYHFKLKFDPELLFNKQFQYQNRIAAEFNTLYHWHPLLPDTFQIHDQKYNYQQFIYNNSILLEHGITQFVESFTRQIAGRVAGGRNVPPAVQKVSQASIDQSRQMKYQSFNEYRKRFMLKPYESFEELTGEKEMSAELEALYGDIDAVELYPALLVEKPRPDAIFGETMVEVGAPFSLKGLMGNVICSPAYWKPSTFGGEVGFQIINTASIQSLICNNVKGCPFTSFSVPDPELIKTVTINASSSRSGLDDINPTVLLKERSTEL
The experiment in a line: COX-2 enzyme based assay. Format: biochemical. Particulars: for inhibition at 10 µM: read-out: % Inhibition in rEnzyme Assay COX-2; for COX2 at 10 μm: Table XVa summary. As for the experimental part: COX-1 and COX-2 enzyme based assays were carried out to check the inhibitory potential of the test compounds on the production of prostaglandin by purified recombinant COX-1/COX-2 enzyme (Proc. Nat. Acad. Sci. USA, 88, 2692-2696, 1991; J. Clin. Immunoassay 15, 116-120, 1992). In this assay, the potential of the test compound to inhibit the production of prostaglandin either by COX-1 or COX-2 from arachidonic acid (substrate) was measured. This was an enzyme based in-vitro assay to evaluate selective COX inhibition with good reproducibility.
Arachidonic acid was converted to PGH2 (Intermediate product) by COX1/COX-2 in the presence or absence of the test compound. The reaction was carried out at 37° C. and after 2 minutes it was stopped by adding 1M HCl. Intermediate product PGH2 was converted to a stable prostanoid product PGF2α by SnCl2 reduction. The amount of PGF2α produced in the reaction was inversely proportional to the COX inhibitory potential of the test compound. The prostanoid product was quantified via enzyme immunoassay (EIA) using a broadly specific antibody that binds to all the major forms of prostaglandin, using Cayman ELISA kit as per the procedure outlined by the manufacturer (Cayman Chemicals, Ann Arbor, USA).

Another assay has as its system HCT-116. In words: Anti-cancer screen (MTT), HCT-116. Format: cell-based. The conditions noted are these: Homo sapiens. As for the experimental part:
as §1, §2, §3, §4, §5, §6

The next assay relates to IL-1β. In words: IL-1β inhibition (Table XVa). Type of assay: cell-based. The conditions noted are these: Table XVa summary.
A further assay deals with TNF- α. The experiment in a line: TNF-α IC50 (Table XVa, assay not given). Particulars: Table XVa summary. Format: cell-based.
The test system of the next assay is TNF-α. The experiment in a line: In vitro measurement of TNF-α in human PBMC. Format: cell-based. The conditions noted are these: for inhibition at 1 µM: Conc. (1 μM); for inhibition at 10 µM: Conc. (10 μM). As for the experimental part:
In Vitro Measurement of TNF-α in Human Peripheral Blood Mononuclear Cells
This assay determines the effect of test compounds on the production of TNF a in human Peripheral Blood Mononuclear Cells (PBMC). Compounds were tested for their ability to inhibit the activity of TNF α in human PBMC. PBMC were isolated from blood (of healthy volunteers) using BD Vacutainer CPT™ (Cell preparation tube, BD Bio Science) and suspended in RPMI medium (Physiol. Res. 52, 593-598, 2003). The test compounds were pre-incubated with PBMC (0.5 million/incubation well) for 15 minutes at 37° C. and then stimulated with Lipopolysaccharide (Escherichia coli: B4; 1 μg/ml) for 18 hours at 37° C. in 5% CO2. The levels of TNF-α in the cell culture medium were estimated using enzyme-linked immunosorbent assay performed in a 96 well format as per the procedure of the manufacturer (Cayman Chemical, Ann Arbor, USA).

[2] abbreviates: 48 hours, MTT, read-out: GI50 (μM) NCI-H460.
The mark [3] stands for this setting: Table XVb summary, for NCI, read-out: Cancer cell lines DU, HCT, NCI (Mean GI50, μm), NCI.
Where [4] appears, read: 48 hours, MTT, read-out: GI50 (μM) HCT-116.
[5] abbreviates: Table XVb summary, for HCT, read-out: Cancer cell lines DU, HCT, NCI (Mean GI50, μm), HCT.

Read-outs that look alike come from different tables or passages of the source.

One may read the GI50 as the concentration that inhibits growth by half. In general, inhibition refers to the change of the read-out against control, counted positive when it falls. What is called IC50 is the concentration that gives 50% inhibition. The low end stands for higher potency, the high end for lower potency. As for `NS(=O)(=O)c1cccc(-c2c(-c3ccc(F)cc3)nc(C(F)(F)F)nc2-n2ccnc2)c1` [Example 80, 3-[4-(4-Fluorophenyl)-6-(1H-imidazol-1-yl)-2-(trifluoromethyl)pyrimidin-5-yl]benzenesulfonamide], the GI50 in the assay on NCI-H460 (setting [2]), in the assay with NCI-H460 (setting [3]), in the assay with HCT-116 (setting [4]) and with HCT-116 (setting [5]) was more than 100 µM each time. In addition, the inhibition at 10 µM in assay [1] was determined as 20%; in the assay with TNF-α, 78%. In addition, in assay [1], the “COX2 at 10 μm” value amounted to 20. Also, the “IL-1β at 10 μm” value in the assay with IL-1β was found to be 36. In addition, half-maximal inhibition in the assay on TNF- α (IC50) required 0.078 µM. In the assay with TNF-α, this molecule had an inhibition at 1 µM of 50%.

Turning to `CCOC(=O)C1CCN(c2nc(C(F)(F)F)nc(-c3ccc(F)cc3)c2-c2cccc(S(N)(=O)=O)c2)CC1` [Example 59, Ethyl-1-[5-(3-aminosulfonylphenyl)-6-(4-fluorophenyl)-2-(trifluoromethyl)pyrimidin-4-yl]piperidine-4-carboxylate], the GI50 in the assay with NCI-H460 (setting [2]) is 10.5 µM; with NCI-H460 (setting [3]), 10.5 µM; in the assay on HCT-116 (setting [4]) it was more than 100 µM; in the assay with HCT-116 (setting [5]), more than 100 µM. Further, the inhibition at 10 µM in assay [1] was determined as 31%; with TNF-α it was 92%. Besides, the “COX2 at 10 μm” value in assay [1] amounted to 31. The “IL-1β at 10 μm” value in the assay on IL-1β came out at 29. Further, in the assay on TNF- α, the half-maximal inhibitory concentration (IC50) amounted to 0.064 µM. This molecule also yielded an inhibition at 1 µM in the assay with TNF-α of 87%.
